{
  "source": "patent US9422239B1",
  "about": "“Dual PPAR-δ PPAR-γ agonists” (Auburn University, priority 2013, dated 2016)",
  "key": {"PPARγ targets": {"test_system": "PPARγ targets", "experiment": "PPARγ target gene (mRNA) expression in hippocampi by qRT-PCR", "type": "in vivo, mice", "conditions": "1 mg/kg orally, compared to rosiglitazone (ICV) and control", "method": "Male C57/b16 and leptin deficient (db/db) mice were purchased from Jackson Laboratories (Bar Harbor, Me.). Animals were maintained in 12 hours of dark-light cycle. […] Both drugs were suspended in sterile saline. Four additional groups comprised the control portion of the study and received physiological saline in the place of the drug treatment either orally or by ICV. […] All treatments extended for 2 weeks.\nTotal RNA was isolated from hippocampi using RNAeasy Lipid Tissue Mini Kit (Qiagen, Valencia, Calif.) and was converted to cDNA (iScript cDNA synthesis kit—Bio Rad, Hercules, Calif.). Real-time PCR was performed in triplicate using a RT2 SYBR Green/Fluorescein fast master mix (SA-Bioscience) and an iCycler real-time PCR thermocycler (Bio-Rad). Gene expression was normalized to β-actin. Relative gene expression was determined by the comparative CT method (30). The data is presented as mean+/−SEM."}, "[1]": {"test_system": "C2C12 skeletal muscle cells", "experiment": "Mitochondrial biogenesis markers by quantitative RT-PCR", "type": "cell-based", "conditions": "4 days", "method": "Therefore, to test the effects of the novel compounds on mitochondrial biogenesis, C2C12 skeletal muscle cells were cultured and treated with the novel compounds for 4 days. Changes associated with markers for mitochondrial biogenesis were determined by quantitative real time PCR."}, "H19-7 hippocampal cells": {"test_system": "H19-7 hippocampal cells", "experiment": "BDNF, post synaptic markers and spine formation in H19-7 hippocampal cells", "type": "cell-based", "text": "As shown in FIGS. 15A & B, reduced BDNF protein and gene expression is observed in db/db hippocampi which helps explain the observation that diabetes attenuates the expression of post synaptic receptor expression levels in db/db mice hippocampi.\nAs mentioned above, BDNF is known to induce synaptogenesis, spine density, and post synaptic receptor expression in neurons but has been previously shown to be reduced in AD brains.\nThe novel compounds (e.g., compound 9) have been developed as tools to better study the effects of PPARγ activation in the hippocampus upon cognition in AD."}, "[2]": {"test_system": "BDNF promoter in primary hippocampal neuronal cells", "experiment": "BDNF promoter luciferase activity", "type": "cell-based, rat", "conditions": "dose response curve", "text": "Primary hippocampal cells: Rat primary neuron cultures for luciferase assays as well as westerns and all other cell cultured assays are described herein. Rat primary neuron cultures can be generated from embryonic day 18-21 rat embryo (male and female) brains (Sprague Dawley) following known protocols. Briefly, the cortices, together with hippocampi, can be dissected and cells can be dissociated with 0.25% trypsin (Invitrogen), treated with 0.05% DNase I (Roche). To remove alternative cells and RBC's, tissue slurry can be allowed to sediment by gravity for 30 minutes at room temperature. Lower cellular suspension can then be plated on poly-D-lysine-coated dishes in Neurobasal A medium (Invitrogen) with B27 supplement (Invitrogen), penicillin (PAA Laboratories, 100 U/ml), streptomycin (PAA Laboratories, 0.1 mg/ml), and 1 mM L-glutamine (PAA Laboratories). Mitotic inhibitor 5-fluoro-2′-deoxyuridine (Sigma) can be added to the medium (10 μM) at 2 days in vitro (DIV) to remove fibroblast and astrocyte contamination. To test isolation purity for neurons, markers for neurons (MAP2) specificity can be measured by gene and western analysis.\nNine distinct transcriptional initiation sites exist: eight in the 5′ noncoding exon and one preceding coding exon IX, indicating nine different promoters control BDNF transcription sites. […]"}},
  "data": [
    {"smiles": "Cc1ccc(CNCCCN(Cc2ccc(C(=O)O)cc2)Cc2cc(C(F)(F)F)cc(C(F)(F)F)c2)cc1", "note": "[Compound 9]", "values": [
      {"measurement": "Activation of PPARγ targets in hippocampi (mRNA expression)", "setting": "PPARγ targets", "value": "selective activation of PPARγ targets"},
      {"measurement": "Cytochrome oxidase c 4-2 subunit expression", "setting": "[1]", "value": "significantly increased"},
      {"measurement": "Gene expression of mitochondrial markers", "setting": "[1]", "value": "increases"},
      {"measurement": "Post synaptic density marker PSD95 expression", "setting": "H19-7 hippocampal cells; H19-7 cells, western analysis", "value": "increase"},
      {"measurement": "BDNF expression", "setting": "H19-7 hippocampal cells; H19 cells", "value": "increase"},
      {"measurement": "Spine formation", "setting": "H19-7 hippocampal cells; H19 cells", "value": "promotes spine formation"},
      {"measurement": "BDNF promoter activity (luciferase)", "setting": "[2]", "value": "inducing"}
    ]}
  ]
}
